The values below come from patent publication US11434235B2, “Solid form of dihydropyrimidine compound and preparation method therefor and use thereof” (SICHUAN KELUN-BIOTECH BIOPHARMACEUTICAL CO., LTD., priority 2018, dated 2022).

One data set concerns Beagle dogs. Briefly: Single dose toxicity in Beagle dogs. Format: in vivo. The protocol: Formulation of the test sample: a required amount of a sample of the crystalline form A of Example 5 (the solvent used in the crystal preparation was isopropanol) was weighed and added to a mortar, polyethylene glycol-15 hydroxystearate (HS15) in an amount of 2.5% of the total volume was added, and the sample was evenly ground. The mortar was washed with a 0.5% methyl cellulose (MC) solution with grinding, until there was no visible residue. The mixture was transferred to a calibrated container, and then diluted with a 0.5% methyl cellulose solution to the volume. The solution was stirred uniformly with a magnetic stirrer to obtain a suspension, which was used as the test sample.
3 groups (4 dogs per group, half male and half female) were set in the single-dose toxicity test in Beagle dogs, and they were the vehicle control group and the low- and high-dose groups of the crystalline form A of the compound of Formula (I).

Data set [1] in a line: Pharmacokinetic experiment of the crystalline form A in rats. It is filed as in vivo. Conditions: both sexes, Sprague-Dawley (SD), rat, blood, 3 mg/kg. An excerpt: Formulation of the test sample for intravenous administration: the sample of Example 5 (the solvent used in the crystal preparation was isopropanol) was taken and dissolved in 5% DMSO+5% Solutol (HS15)+90% normal saline, to obtain the test sample solution for intravenous administration;
Formulation of the test sample for intragastric administration: the sample of Example 5 (the solvent used in the crystal preparation was isopropanol) was taken and suspended in 97.5% of 0.5% methyl cellulose (MC)+2.5% Solutol (HS15) to obtain a suspension, which was used as the test sample for intragastric administration.
12 SD rats were randomly divided into two groups, groups A and B (6 rats per group, half male and half female). The rats in Group A were each given a single intravenous injection of the sample drug; the rats in Group B were each given the sample drug through intragastric administration, and the dosages are both 3 mg/kg. The blood sampling time points for the intravenous and intragastric administration were before administration and 0.083, 0.25, 0.5, 1.0, 2.0, 4.0, 6.0, 8.0, 10, and 24 h after administration.

Data set [2] in a line: Stability of the crystalline form A under grinding (XRPD). It is filed as physicochemical. Particulars: ground in a mortar for 5 minutes. The protocol: X′Pert3 Powder diffractometer using Cu target radiation was employed, and the detection was performed at room temperature with Absolute scan. The detection range was 3.5° to 40° with a step size of 0.013° and a dwell time of 50 s, scan time: 1. A sample of the crystalline form A of the compound of Formula (I) was ground at a constant speed in a mortar, and samples were taken after the grinding was performed for 2 and 5 minutes, respectively, for XRPD detection.

Data set [3] can be described thus: Stability of the crystalline form A at room temperature (XRPD). Format: physicochemical. Conditions: 15 days. Here is the method:
X′Pert3 Powder diffractometer using Cu target radiation was employed, and the detection was performed at room temperature with Absolute scan. The detection range was 3.5° to 40° with a step size of 0.013° and a dwell time of 50 s, scan time: 1. A sample of the crystalline form A of the compound of Formula (I) was allowed to stand at room temperature, and samples were taken on Day 5 and 15 for XRPD detection.

Another data set relates to SD rats. Briefly: Single-dose toxicity in SD rats. Format: in vivo. From the text: The mortar was washed with a 0.5% methyl cellulose (MC) solution with grinding, until there was no visible residue. The mixture was transferred to a calibrated container, and then diluted with a 0.5% methyl cellulose solution to the volume. The solution was stirred uniformly with a magnetic stirrer to obtain a suspension, which was used as the test sample.
4 groups (10 rats per group, half male and half female) were set in the single-dose toxicity test in SD rats, and they were the vehicle control group and the low-, medium-, and high-dose groups of the crystalline form A of the compound of Formula (I), respectively.

Data set [4] in a line: Stability of the crystalline form A at a high temperature (XRPD). Format: physicochemical. Conditions: 7 days. The protocol: X′Pert3 Powder diffractometer using Cu target radiation was employed, and the detection was performed at room temperature with Absolute scan. The detection range was 3.5° to 40° with a step size of 0.013° and a dwell time of 50 s, scan time: 1. A sample of the crystalline form A of the compound of Formula (I) was allowed to stand under vacuum at 60° C., and samples were taken on Day 2, 5 and 7, respectively, for XRPD detection.

The nature of data set [5]: Determination of the log P value (Sirius T3, pH-metric medium log P). It is filed as physicochemical. Conditions: titration from low to high pH. Here is the method:
The log P value of a sample of the crystalline form A prepared in Example 5 (the solvent used in the crystal preparation was isopropanol) was measured with the Sirius T3 instrument for physical and chemical profile determination. The Sirius log P test method (pH-metric medium log P) was employed, wherein the pH-metric medium log P determination mode was selected, and the titration order was from low to high pH.

The nature of data set [6]: Determination of the solubility of the crystalline form A. Format: physicochemical. Conditions: 25±2° C., Chinese Pharmacopoeia 2015 terms. Here is the method:
Test solvents: methanol, acetonitrile, ethanol, isopropanol, a 0.1 mol/L aqueous solution of hydrochloric acid and a 0.1 mol/L aqueous solution of sodium hydroxide. Test method: the investigation was conducted according to Item 15(2) of the General Notices in Volume IV of the Chinese Pharmacopoeia (2015 edition). An appropriate amount of a sample of the crystalline form A prepared in Example 5 (the solvent used in the crystal preparation was isopropanol) was weighed and added to a certain volume of the solvent at 25±2° C. The mixture was shaken strongly for 30 seconds at an interval of 5 minutes. […] It was considered to be completely soluble if none of the particles of the solute was observed.

Data set [7] is described as follows: DVS study (hygroscopicity) of the crystalline form A. Format: physicochemical. The protocol:
The experimental conditions for the dynamic vapor sorption (DVS) were as follows: The detection was performed with DVS Intrinsic (SMS) at 25° C. in a cycle-DMDT mode. The hygroscopicity of a sample of the crystalline form A of the compound of Formula (I) was measured through dynamic vapor sorption (DVS): the hygroscopicity thereof was measured at 25° C., 10% humidity gradient in the range of 0%-90%-0%.

The next data set deals with hERG (Homo sapiens, UniProt Q12809). Particulars: background statement, no test described; cited from earlier work.
Where [8] appears, read: po, SD rats, intragastric, single dose, n = 6.
Setting [9] is: SD rats, intravenous, single dose, n = 6.

Chain of hERG (Q12809 whole entry): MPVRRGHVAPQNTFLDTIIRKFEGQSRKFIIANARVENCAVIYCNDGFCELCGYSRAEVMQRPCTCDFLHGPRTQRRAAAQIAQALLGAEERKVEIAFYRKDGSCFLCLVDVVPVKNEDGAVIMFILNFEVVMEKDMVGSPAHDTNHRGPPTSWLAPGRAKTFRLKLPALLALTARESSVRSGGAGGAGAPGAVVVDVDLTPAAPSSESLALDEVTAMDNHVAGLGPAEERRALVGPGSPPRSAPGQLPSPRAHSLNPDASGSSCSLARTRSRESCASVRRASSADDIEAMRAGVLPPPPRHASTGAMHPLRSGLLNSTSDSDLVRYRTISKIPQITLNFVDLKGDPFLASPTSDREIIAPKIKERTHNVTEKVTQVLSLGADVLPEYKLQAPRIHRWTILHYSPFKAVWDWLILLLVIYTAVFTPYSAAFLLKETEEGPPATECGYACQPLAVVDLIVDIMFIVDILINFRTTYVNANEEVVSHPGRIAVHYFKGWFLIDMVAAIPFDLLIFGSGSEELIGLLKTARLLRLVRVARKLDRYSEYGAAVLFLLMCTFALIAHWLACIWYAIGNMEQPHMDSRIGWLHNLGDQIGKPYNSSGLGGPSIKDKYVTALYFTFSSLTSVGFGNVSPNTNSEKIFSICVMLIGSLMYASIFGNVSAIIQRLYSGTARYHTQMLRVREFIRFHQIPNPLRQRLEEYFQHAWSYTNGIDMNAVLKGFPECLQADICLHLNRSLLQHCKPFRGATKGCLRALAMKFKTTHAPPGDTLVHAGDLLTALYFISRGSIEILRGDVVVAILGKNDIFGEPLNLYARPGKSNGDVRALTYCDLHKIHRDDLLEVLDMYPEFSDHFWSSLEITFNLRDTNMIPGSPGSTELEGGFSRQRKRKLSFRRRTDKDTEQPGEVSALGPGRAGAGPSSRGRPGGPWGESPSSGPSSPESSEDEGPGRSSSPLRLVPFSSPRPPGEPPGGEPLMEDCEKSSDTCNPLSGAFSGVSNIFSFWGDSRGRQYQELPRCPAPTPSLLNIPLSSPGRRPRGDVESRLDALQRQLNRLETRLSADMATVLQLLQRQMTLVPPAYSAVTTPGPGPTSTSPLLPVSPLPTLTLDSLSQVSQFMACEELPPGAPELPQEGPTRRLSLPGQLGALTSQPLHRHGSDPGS

One may read the bioavailability as the share of a dose that reaches the circulation, judged against a reference dose that is usually intravenous. The term AUC(0-inf) denotes total exposure, with the tail of the curve extrapolated. By AUC(0-t) is commonly meant exposure summed from dosing to a finite time, without extrapolation to infinity. A word on the Cmax: it is the maximum level reached in the sampled fluid or tissue. Broadly, the half-life is the time in which the quantity being followed falls by half. Higher therefore signals slow loss. For orientation: Tmax means the time from dosing to the highest level. For orientation: logP means a log measure of how a compound divides between an organic and an aqueous phase. A low value points to a more hydrophilic compound. In the case of `COC(=O)C1=C(CN2CCO[C@H](/C=C/C(=O)O)C2)NC(c2nccs2)=N[C@H]1c1ccc(F)cc1Cl` [crystalline form A, (E)-3-((R)-4-(((R)-6-(2-chloro-4-fluorophenyl)-5-(methoxycarbonyl)-2-(thiazol-2-yl)-3,6-dihydropyrimidin-4-yl)methyl)morpholin-2-yl)acrylic acid], in the data set on Beagle dogs (Beagle dogs, intragastric, low- and high-dose groups, 14 days observation), the “tolerability, single dose” value is listed as “well tolerated”. Besides, in the data set on Beagle dogs (dog, in vivo), the “abnormalities after 14 days” value is on record as “no abnormalities were observed”. For the same molecule, the bioavailability in data set [1] (oral, rats, intragastric vs intravenous, calculated based on AUC0-∞, read-out: absolute bioavailability) is 62.4%. In addition, in data set [1] (setting [8]), the AUC(0-inf) came to 6490 ± 2950 ng·h/mL, the AUC(0-t) was 6460 ± 2940 ng·h/mL, the Cmax worked out at 3980 ± 1440 ng/mL and the half-life is 60.6 ± 15.6 min. The Tmax in data set [1] (po, SD rats, intragastric, single dose, n = 6, median (range in next line)) worked out at 22.8 min. In data set [1] (setting [9]), this molecule showed an area under the curve AUC(0-inf) of 10400 ± 4500 ng·h/mL, an AUC(0-t) of 10400 ± 4500 ng·h/mL, a Cmax of 9210 ± 2100 ng/mL and a half-life of 52.8 ± 10.8 min. Also, the “crystalline form after grinding (XRPD)” value in data set [2] is reported as “did not change”. Besides, the “crystalline form after standing at room temperature (XRPD)” value in [3] is on record as “did not change”. The “abnormalities after 14 days” value in the data set with SD rats (intragastric single dose, condition, body weight, food intake, hematology, blood biochemistry, gross anatomy) is reported as “no abnormalities were observed”. The “tolerability, single dose” value in the data set on SD rats (intragastric, low-, medium-, high-dose groups, 14 days observation) was “well tolerated”. The “crystalline form after standing under vacuum at 60° C. (XRPD)” value in data set [4] is reported as “did not change”. In [5], this molecule showed a logP of 2.4 to 2.6. Moreover, in [6], the “solubility in 0.1 mol/L aqueous solution of hydrochloric acid” value was “sparingly soluble”, the “solubility in 0.1 mol/L aqueous solution of sodium hydroxide” value was “sparingly soluble”, the solubility in acetonitrile entry was “soluble” and the solubility in ethanol result is given as “soluble”. In data set [6], the solubility in isopropanol result is “slightly soluble” and the solubility in methanol entry was “soluble”. In data set [7] (DVS, 25° C., 80% humidity), the “weight increase by hygroscopy” value is reported as 0.28%. Further, in [7] (weight increase within 0.2%-2%), the “hygroscopicity class (Chinese Pharmacopoeia 2015)” value was “slightly hygroscopic”.

With `COC(=O)C1=C(CN2CCO[C@H](/C=C/C(=O)O)C2)NC(c2nccs2)=N[C@H]1c1ccc(F)cc1Cl` [compound of Formula (I), (E)-3-((R)-4-(((R)-6-(2-chloro-4-fluorophenyl)-5-(methoxycarbonyl)-2-(thiazol-2-yl)-3,6-dihydropyrimidin-4-yl)methyl)morpholin-2-yl)acrylic acid], at hERG, the cardiotoxicity entry is “no cardiotoxicity”.
